Values quoted from earlier work in patent US6770617B2, “Softener composition” (Kao Corporation, priority 2001, dated 2004).

details: 1-octanol/water; actual value if there was one, otherwise Clog P calculated with CLOGP v4.01

Row | log P | Compound
1 | 0.54 | CCCCCOCC(O)CO (stereo not drawn) [(c-1), Pentyl glyceryl ether]
2 | 0.99 | CCCOC(C)COC(C)CO (stereo not drawn) [(c-2), Dipropylene glycol monopropyl ether]
3 | 1.32 | OCCOCCOCCOc1ccccc1 [(c-3), Triethylene glycol monophenyl ether]
